Assay results from US20240125775A1, “IMMOBILIZATION AND MAGNETIC EXTRACTION OF PATHOGENS AND PATHOGEN COMPONENTS” (priority 2020, published 2024).
Entries after “also recorded” stand apart in the source; their conditions may differ. Ends that are not written are not given here.

Legend:
[1] = Hydrodynamic particle size (dynamic light scattering); type: physicochemical; details: neutral pH (e.g. around 7)
Method: Dynamic light scattering (DLS) was performed with a Zetasizer Nano ZS (Malvern Panalytical, Almelo, Netherlands) to determine the hydrodynamic particle size of the NP at 25° C.in water (refractive index 1.33; viscosity 0.8872 mPa-s; backscattering mode at 173°). The same device was used to measure the particle's aqueous zeta potential with 78.5 as dielectric constant. Measurements were done in triplicate at an iron concentration of 50 μg/ml and pH of 7.4, the results were averaged.

[2] = tested on: LPS (E. coli LPS O55:B5, O26:B6, O111:B4); experiment: LPS (endotoxin) binding, EndoZyme Recombinant Factor C Assay; details: 10 EU/ml LPS
Method: In order to evaluate general parameters of the concentration and incubation time with SPIONs, the inventors analysed conditions that are representative for these parameters. A high and a low particle concentration, as well as two exposure conditions were tested (agitation for 30 sec and 3 sec; particle concentration of 0.01 mg Fe/ml and 1 mg Fe/ml) were tested with the peptide exposing SPION^APTES-SBA-SPP04 and non-peptide exposing SPION^HAP. The concentration of peptide for the functionalized particles was assumed to be 0.08 μmol peptide/mg Fe, as assessed above. As other particles have been reported to bind certain amounts of LPS unspecifically, SPION^HAp are interesting for our experiments concerning this concern as a control.
Binding studies of endotoxin were performed with EndoZyme Recombinant Factor C Assay kit (Hyglos, Germany). In this kit, LPS is detected by recombinant Factor C, thus excluding possible interferences by p-glucans. Calibration curves for the three different LPSs have been prepared in endotoxin free water. SPION^APTES-SBA-SPP04 was used in this study as its efficacy has been described previously. For this experiment, we used two different iron concentrations (1 mg Fe/ml and 0.01 mg Fe/ml) and two incubation parameters (30 s at 1400 rpm and 37° C. as well as 3 s at RT). Three different LPSs were added to 200 μl of the different particle dispersions. The final concentration of LPS was set to 10 EU/ml in each tested sample. Spiking controls (8 and 5 EU/ml) were carried out to see if any interference occurred for all tested particles.
Supernatants were produced using a neodymium magnet (310 mT at separation side) for three minutes. 50 μl of each supernatant were mixed with 50 μl of the assay reagent (80% v/v assay buffer, 10% v/v substrate, 10% v/v enzyme) in black, endotoxin-free 96-well plates. The reaction was monitored for 90 minutes at 37° C. in 15 min intervals by recording the fluorescence at an excitation wavelength of 360 nm and an emission at 465 nm in a Filter-Max F5 Plate reader (Molecular Devices).

[3] = tested on: lipoteichonic acids (LTA); experiment: Binding of LTA in aqueous Ringer' solution; details: 0.3 mg Fe/ml, 2.5 ng/ml LTA; for LTA bound: 5 minutes at 37° C., magnet 3 minutes
Method: The binding of a further relevant toxin (from gram-positive bacteria) was also investigated with the improved particles as disclosed herein, which was not described in Karawacka et al. (2018). These experiments were performed in aqueous Ringer' solution. […] For this experiment, 2.5 ng/ml LTA were used and incubated for 5 minutes at 37° C. on a shaker at 700 rpm. Subsequently, the particles were separated magnetically for 3 minutes. […] SPION^APTES-SBA-SPP04/SPION^APTES-SBA-SPP19 could bind 0.75 ng/ml LTA and 0.97 ng/ml, respectively. Thus, a reduction of LTA by 30% and 29%, respectively, could be detected by using the improved particles SPION^APTES-SBA-SPP04/SPION^APTES-SBA-SPP19 as disclosed herein.

[4] = Separation of micromer^LPS (artificial gram-negative bacteria); details: initial 0.1 mg/ml micromer^LPS, 1 mg/ml Fe, 2 h, OD 620 nm
Method: For a better understanding of the separation process, the inventors tried to remove artificial micromers to simulate bacteria. For this, LPS coated polystyrene/polymethacrylate Micromer® particles (micromer^LPS) were used and removed from a water suspension instead of living bacteria. […] This experiment was performed by optical density measurements at 620 nm, as it is done for actual bacteria.
For this experiment micromer® particles (micromer) were incubated with endotoxin to receive endotoxin coated micromer particles (micromer^LPS). Any other polymeric particles of similar size could have been used as an alternative. It has been reported, that endotoxins stick to surfaces and can be attached to polymeric particles. Therefore, particles bearing 1 mg particles/ml was incubated with 1 μg/ml endotoxin LPS3 for 2 h at 1400 rpm. After centrifugation the particles were washed several times.
SPION^APTES-SBA-SPP04 and unmodified SPION^HAp with a Fe concentration of 1 mg/ml were incubated with 0.1 mg micromer^LPS for 2 h at 1400 rpm and 37° ° C. SPION^APTES served as a control. A calibration curve was prepared with different concentrations of micromer^LPS. The calibration samples and the magnetically decanted supernatants were measured in the reader at 620 nm absorption wavelength like it is used for the OD measurements of bacteria (Brenner et al. 2005 and Chen et al. 2011). […]

E. coli [5] = experiment: Magnetic separation of E. coli from aqueous medium (Ringer solution); type: cell-based; details: 5 minutes incubation, 3 minutes separation
Method: E. coli were incubated with particles for 5 minutes and then separated for 3 minutes. Supernatants were plated out. […] A reduction of the particle amount to 0.1 mg Fe/ml led to a reduced bacterial separation 170 CFUS).

Staphylococcus aureus = experiment: Depletion of Staphylococcus aureus from aqueous medium; type: cell-based; details: for Staphylococcus aureus after separation: from 1393 CFU/ml, 0.3 mg Fe/ml, Ringer's solution; for CFU of re-plated bacteria loaded particles: re-plating, S. aureus
Text: For testing the separation of S. aureus from a sample, particles were functionalized with the peptides SPP04 and SPP19 for this experiment. The bacterial suspension was adjusted to an OD (measured at 600 nm) of 0.13 and then diluted 1:800 with Ringer's solution. […] It could also be shown that the particles have no toxic effect on the bacteria. For Staphylococcus aureus (gram+) a reduction from 1393 CFU/ml to 27 CFU/ml for SPION^APTES-SBA-SPP04 and 73 CFU/ml for SPION^APTES-SBA-SPP19 could be achieved by separation as shown in FIG. 12.

Pseudomonas aeruginosa = experiment: Depletion of Pseudomonas aeruginosa from aqueous medium; type: cell-based; details: from 5320 CFU/ml, 0.3 mg Fe/ml
Method: (§1) Analogous observations are shown in FIG. 13 for the gram negative bacterium Pseudomonas aeruginosa reduction from 5320 CFU/ml to 2 CFU/ml for SPION^APTES-SBA-SPP04 and 7 CFU/ml for SPION^APTES-SBA-SPP19 could be achieved. For Serratia marcescens (gram−) a reduction from 1300 CFU/ml to 26 CFU/ml for SPION^APTES-SBA-SPP04 could be achieved as shown in FIG. 14. Redispersed particles that were plated out yielding a recovery of 1227 CFU/ml for SPION^APTES-SBA-SPP04, which is similar to the positive control.

Serratia marcescens = experiment: Depletion of Serratia marcescens from aqueous medium; type: cell-based
Method: as §1

E. coli [6] = experiment: Separation of E. coli from blood; type: cell-based
Method: For this experiment, E. coli was added to blood and then 0.3 mg Fe/ml particles were used to extract/separate the bacteria. Thus, the remaining bacterial load in the blood was tested as a first aspect of this experiment. Furthermore, citrate and EDTA-stabilized blood was used and compared, as EDTA is expected to hinder the binding of the peptide to the bacteria. Therefore, the depletion of bacteria is expected to be lower in EDTA-stabilized blood compared to citrate-stabilized blood. The overall bacterial load in citrate stabilized blood amounted to 1913 colony forming units per milliliter (CFU/ml) (FIG. 15). SPION^APTES-SBA-SPP04 particles reduced the concentration to 927 CFU/ml in citrate-stabilized blood. […] For completeness, in EDTA-stabilized blood, the amount of CFUs was reduced from 2867 CFU/ml to 1733 CFU/ml by SPION^APTES-SBA-SPP04. Thus, a reduction of around 40% was achieved.
In this experiment we used blood from health volunteers and added an amount of bacteria to it. A concentration of 0.3 mg Fe/ml was used for the particles. To 0.8 ml of blood, (citrate or EDTA stabilized) 0.1 bacteria suspension in Ringer's solution have been added. After 5 min. of incubation, 0.1 ml of particles (3 mg Fe/ml) in Ringer's solution have been added. Samples were incubated for 5 minutes on a shaker at 700 rpm. After incubation, the particles have been removed by placing a magnet (310 mT) behind the samples. After 3 min separation of the particles the supernatant were plated out. As a negative control only 0.2 ml Ringer's solution was added to blood. The positive control consisted of 0.8 ml blood and 0.1 ml bacteria suspension and another 0.1 ml Ringer's solution. In addition the particles were washed one time after separation and then redispersed in Ringer's solution and plated out.
After 16 h of incubation, the CFUs (colony forming units) on the plates have been counted. The samples have been compared to the amount found in the positive control.

bacteria = experiment: Concentration of viable bacteria (10 ml sample, plating); type: cell-based; details: 0.3 mg Fe/ml, 30 minutes, 310 mT 3 minutes, 10 ml to 0.5 ml
Method: In this experiment, an approach as used with common blood cultures in order to identify pathogens was chosen. The total volume was set to 10 ml. The bacterial suspension was adjusted to an OD (measured at 600 nm) of 0.13 with Ringer's solution analogous to the previous experiments. A sample, which was not treated with SPIONs, served as a control. A concentration of 0.3 mg Fe/ml SPION^APTES-SBA-SPP04 was used. Incubation was performed for 30 minutes at room temperature on a rolling incubator. The particles were then magnetically separated for 3 minutes at 310 mT. 0.5 ml Ringer's solution was added to the particle pellets and vortexed. […] A total of 50 μl was plated out for each sample. […] Compared to common blood cultures, bacterial pathogens can be detected faster by using this method, because the amplification step of the bacteria using blood culture bottles could be omitted.

SPION^APTES-SBA-SPP04: APTES-coated SPIONs linked via SBA to peptide SPP04 (SEQ ID NO: 1) (RKQGRVEVLYRASWGTVC; also: conjugated via SBA linker to APTES-coated SPIONs)
particle diameter after functionalization with peptide [1]: 2.54 μm | binding of LPS ([2]; 0.01 mg Fe/ml (FIG. 8C, D)): about 50% | reduction / binding of LPS, all LPS types ([2]; 0.01 mg Fe/ml, 3 seconds): at least 40% | reduction of LPS, all three LPS types ([2]; 0.01 mg Fe/ml, 30 seconds): at least 48% | LPS bound ([2]; 1 mg Fe/ml, 3 s): 94% | remaining LPS ([2]; 1 mg Fe/ml, 3 s): up to 6% | LPS removal ([2]; 1 mg Fe/ml, 30 s of agitation): completely removed the LPS below the detection limit; also recorded: completely removed the endotoxin below the detection limit | reduction of LTA [3]: 30% | LTA bound [3]: 0.75 ng/mL | remaining micromer^LPS [4]: 0.023 mg/mL | E. coli in supernatant (E. coli [5]; 0.1 mg Fe/ml): 170 CFUs | E. coli in supernatant (E. coli [5]; 1.0 mg Fe/ml): 2 CFU/ml | Staphylococcus aureus after separation (Staphylococcus aureus): 27 CFU/ml | CFU of re-plated bacteria loaded particles (Staphylococcus aureus): in the range of the positive control; also recorded: even increased | Pseudomonas aeruginosa after separation (Pseudomonas aeruginosa): 2 CFU/ml | Serratia marcescens after separation (Serratia marcescens; from 1300 CFU/ml, 0.3 mg Fe/ml): 26 CFU/ml | recovery from redispersed, plated particles (Serratia marcescens; re-plating, Serratia marcescens): 1227 CFU/ml | replating of extracted bacteria (E. coli [6]; EDTA-stabilized blood): 1066 CFU/ml | reduction of bacterial load (E. coli [6]; EDTA-stabilized blood, 0.3 mg Fe/ml): around 40% | E. coli remaining in blood (E. coli [6]; EDTA-stabilized blood, from 2867 CFU/ml, 0.3 mg Fe/ml): 1733 CFU/ml | replating of extracted bacteria (E. coli [6]; citrate-stabilized blood): 913 CFU/ml | E. coli remaining in blood (E. coli [6]; citrate-stabilized blood, from 1913 CFU/ml, 0.3 mg Fe/ml): 927 CFU/ml | plating of sample concentrated with SPIONs (bacteria): dense bacterial lawn

SPION^APTES-SBA-SPP19: APTES-coated SPIONs linked via SBA to peptide SPP19 (SEQ ID NO: 2) (RKQGRVEILYRGSWGTVC; also: conjugated via SBA linker to APTES-coated SPIONs)
reduction of LTA [3]: 29% | LTA bound [3]: 0.97 ng/mL | Staphylococcus aureus after separation (Staphylococcus aureus): 73 CFU/ml | CFU of re-plated bacteria loaded particles (Staphylococcus aureus): in the range of the positive control | Pseudomonas aeruginosa after separation (Pseudomonas aeruginosa): 7 CFU/ml
